Experimental findings from patent US5089624A, “Dihydropyridine derivatives” (Yuhan Corporation, priority 1988, dated 1992) are described below.

One assay has as its system spiral strips of rabbit aorta. Kind of assay: Reduction of calcium-induced contraction of K+-depolarised rabbit aorta spiral strips. Conditions: Oryctolagus cuniculus; molar concentration required to reduce the contractile response by 50%; 35 mM potassium, 2 mM calcium ion. In kind it is cell-based. The protocol: The test is performed by mounting spiral strips of rabbit aorta with one end fixed and the other attached to a force transducer. The mounted tissue is immersed in a physiological salt solution containing potassium ion at a concentration of 35 millimole and no calcium. Calcium chloride is added to the bath to give a final calcium ion concentration of 2 millimole. The change in tension caused by the resulting contraction of the tissue is noted. The bath is drained and replaced with fresh salt solution and, 45 minutes later the test is repeated with the addition of the compound being tested in the presence of salt solution and, […] The concentration of compound required to reduce the response by 50% is recorded. The anti-hypertensive activity of the compounds is also evaluated oral administration by measuring the decrease fall in blood pressure in spontaneously hypertensive rats.
In general, IC50 refers to the concentration needed to halve the response being measured. For the compound `CCOCOC(=O)C1=C(C)NC(C)=C(C(=O)OC)C1c1cccc([N+](=O)[O-])c1` (stereo not drawn) [Example 9], the IC50 amounted to 29 nM.

As to `COC(=O)C1=C(C)NC(C)=C(C(=O)OCSC)C1c1ccccc1[N+](=O)[O-]` (stereo not drawn) [Example 12], the IC50 came out at 11 nM.

With `COCOC(=O)C1=C(C)NC(C)=C(C(=O)OC(C)C)C1c1cccc([N+](=O)[O-])c1` (stereo not drawn) [Example 8], the IC50 amounted to 26 nM.

As for `COC(=O)C1=C(C)NC(C)=C(C(=O)OCSC)C1c1cccc([N+](=O)[O-])c1` (stereo not drawn) [Example 1, 2,6-dimethyl-4-(3'-nitrophenyl)-1,4-dihydropyridine-3,5-dicarboxylic acid 3-methylthiomethyl ester 5-methyl ester], the concentration for half-maximal inhibition (IC50) amounted to 4 nM.

Turning to `COCOC(=O)C1=C(C)NC(C)=C(C(=O)OC)C1c1cccc([N+](=O)[O-])c1` (stereo not drawn) [Example 7], the IC50 stood at 42 nM.

Consider `CCSCOC(=O)C1=C(C)NC(C)=C(C(=O)OC)C1c1cccc([N+](=O)[O-])c1` (stereo not drawn) [Example 4], for which the IC50 was determined as 17 nM.

On to `COC(=O)C1=C(C)NC(C)=C(C(=O)OCSc2ccccc2)C1c1cccc([N+](=O)[O-])c1` (stereo not drawn) [Example 13, 2,6-dimethyl-4-(3-nitrophenyl)-1,4-dihydropyridine-3,5-dicarboxylic acid 3-phenylthiomethyl, 5-methylester], for which the IC50 amounted to 142 nM.

Take `COC(=O)C1=C(C)NC(C)=C(C(=O)OCCN(C)Cc2ccccc2)C1c1cccc([N+](=O)[O-])c1` (stereo not drawn) [control, Nicardipine, reference compound]: the IC50 came out at 35 nM.

Consider `COC(=O)C1=C(C)NC(C)=C(C(=O)OCSC)C1c1ccccc1C(F)(F)F` (stereo not drawn) [Example 6], for which the IC50 is 19 nM.

`CCOC(=O)C1=C(C)NC(C)=C(C(=O)OCSC)C1c1cccc([N+](=O)[O-])c1` (stereo not drawn) [Example 2]: the IC50 was found to be 20 nM.

For `COC(=O)C1=C(C)NC(C)=C(C(=O)OCSC)C1c1cccc2nonc12` (stereo not drawn) [Example 11], the IC50 amounted to 80 nM.

In the case of `COCOC(=O)C1=C(C)NC(C)=C(C(=O)OC)C1c1cccc(Cl)c1Cl` (stereo not drawn) [Example 10], the IC50 was determined as 20 nM.

On to `CSCOC(=O)C1=C(C)NC(C)=C(C(=O)OC(C)C)C1c1cccc([N+](=O)[O-])c1` (stereo not drawn) [Example 3], for which the IC50 came out at 56 nM.

Consider `COC(=O)C1=C(C)NC(C)=C(C(=O)OCSC)C1c1cccc(Cl)c1Cl` (stereo not drawn) [Example 5], for which the IC50 amounted to 29 nM.

The assay is the same for the next values; noted with them: ranking by IC50 in Table 1.
`COC(=O)C1=C(C)NC(C)=C(C(=O)OCSC)C1c1cccc([N+](=O)[O-])c1` (stereo not drawn) [Example 1, 2,6-dimethyl-4-(3'-nitrophenyl)-1,4-dihydropyridine-3,5-dicarboxylic acid 3-methylthiomethyl ester 5-methyl ester]: the “activity ranking in words (the smaller the concentration, the more active)” value is listed as “most active compound”.
